23 molecules from BindingDB's records for doi:10.1021/jm7011613 (Abbott Laboratories, 2008) can be followed below.

Sequence of Cannabinoid receptor 2 (P34972 whole entry): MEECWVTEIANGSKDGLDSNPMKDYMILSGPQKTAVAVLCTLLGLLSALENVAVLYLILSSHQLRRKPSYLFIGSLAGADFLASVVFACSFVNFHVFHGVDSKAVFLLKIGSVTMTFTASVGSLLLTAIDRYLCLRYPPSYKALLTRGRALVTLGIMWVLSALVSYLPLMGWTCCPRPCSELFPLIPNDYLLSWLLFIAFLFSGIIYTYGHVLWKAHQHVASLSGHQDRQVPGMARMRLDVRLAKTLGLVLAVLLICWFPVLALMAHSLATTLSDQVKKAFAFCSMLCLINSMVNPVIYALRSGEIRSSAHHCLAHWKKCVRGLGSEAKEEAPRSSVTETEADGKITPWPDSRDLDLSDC

In this experiment the target is Cannabinoid receptor 2 (Homo sapiens, UniProt P34972). The experiment can be described thus: Radioligand Binding Assay. The protocol:
IC50 values for test compounds were determined from nonlinear regression analysis of data collected from ligand binding experiments. The inhibition constant (Ki) was calculated from IC50 value by the Cheng and Prusoff equation.
`CC1(C)C(C(=O)c2cn(CC3CCOCC3)c3cccc(O)c23)C1(C)C` [1-(oxan-4-ylmethyl)-3-[(2,2,3,3-tetramethylcyclopropyl)carbonyl]-1H-indol-4-ol] had an EC50 of 73 nM.

Molecule `CC1(C)C(C(=O)c2cn(CC3CCOCC3)c3ccc(N)cc23)C1(C)C` [1-(oxan-4-ylmethyl)-3-[(2,2,3,3-tetramethylcyclopropyl)carbonyl]-1H-indol-5-amine] gave an EC50 of 15.5 nM.

The molecule `CC1(C)C(C(=O)c2cn(CC3CCOCC3)c3ccc(O)cc23)C1(C)C` [1-(oxan-4-ylmethyl)-3-[(2,2,3,3-tetramethylcyclopropyl)carbonyl]-1H-indol-5-ol] gave an EC50 of 11 nM.

`CC1(C)C(C(=O)c2cn(CC3CCOCC3)c3cc(O)ccc23)C1(C)C` [1-(oxan-4-ylmethyl)-3-[(2,2,3,3-tetramethylcyclopropyl)carbonyl]-1H-indol-6-ol] came in with an EC50 of 18.5 nM.

`CC1(C)C(C(=O)c2cn(CC3CCOCC3)c3cc(O)c(O)cc23)C1(C)C` [1-(oxan-4-ylmethyl)-3-[(2,2,3,3-tetramethylcyclopropyl)carbonyl]-1H-indole-5,6-diol] showed an EC50 of 28 nM.

As for `CC1(C)C(C(=O)c2cn(CC3CCOCC3)c3ccc(C#N)cc23)C1(C)C` [1-(oxan-4-ylmethyl)-3-[(2,2,3,3-tetramethylcyclopropyl)carbonyl]-1H-indole-5-carbonitrile], a half-maximal response (EC50) required 263 nM.

For `CC1(C)C(C(=O)c2cn(CC3CCOCC3)c3cc(C#N)ccc23)C1(C)C` [1-(oxan-4-ylmethyl)-3-[(2,2,3,3-tetramethylcyclopropyl)carbonyl]-1H-indole-6-carbonitrile], the concentration for a half-maximal effect (EC50) was determined as 53 nM.

Turning to `CC1(C)C(C(=O)c2cn(CC3CCOCC3)c3ccccc23)C1(C)C` [1-(oxan-4-ylmethyl)-3-[(2,2,3,3-tetramethylcyclopropyl)carbonyl]-1H-indole], it took 9.5 nM to reach a half-maximal effect (EC50).

In turn, `CC1(C)C(C(=O)c2cn(CCN3CCOCC3)c3cccc(N)c23)C1(C)C` [1-[2-(morpholin-4-yl)ethyl]-3-[(2,2,3,3-tetramethylcyclopropyl)carbonyl]-1H-indol-4-amine] gave an EC50 of 215 nM.

`CC1(C)C(C(=O)c2cn(CC3CCOCC3)c3c(F)c(F)c(F)c(F)c23)C1(C)C` [4,5,6,7-tetrafluoro-1-(oxan-4-ylmethyl)-3-[(2,2,3,3-tetramethylcyclopropyl)carbonyl]-1H-indole] showed an EC50 of 40 nM.

As for `Cc1c(C(=O)C2C(C)(C)C2(C)C)c2ccccc2n1CCN1CCOCC1` [4-(2-{2-methyl-3-[(2,2,3,3-tetramethylcyclopropyl)carbonyl]-1H-indol-1-yl}ethyl)morpholine], a half-maximal response (EC50) required 362 nM.

`CC1(C)C(C(=O)c2cn(CCN3CCOCC3)c3ccccc23)C1(C)C` [4-(2-{3-[(2,2,3,3-tetramethylcyclopropyl)carbonyl]-1H-indol-1-yl}ethyl)morpholine] displayed an EC50 of 17.5 nM.

The molecule `CC1(C)C(C(=O)c2cn(CC3CCOCC3)c3cccc(OCc4ccccc4)c23)C1(C)C` [4-(benzyloxy)-1-(oxan-4-ylmethyl)-3-[(2,2,3,3-tetramethylcyclopropyl)carbonyl]-1H-indole] came in with an EC50 of 502 nM.

`COc1cccc2c1c(C(=O)C1C(C)(C)C1(C)C)cn2CC1CCOCC1` [4-methoxy-1-(oxan-4-ylmethyl)-3-[(2,2,3,3-tetramethylcyclopropyl)carbonyl]-1H-indole] came in with an EC50 of 91 nM.

As for `COCc1ccc2c(c1)c(C(=O)C1C(C)(C)C1(C)C)cn2CC1CCOCC1` [5-(methoxymethyl)-1-(oxan-4-ylmethyl)-3-[(2,2,3,3-tetramethylcyclopropyl)carbonyl]-1H-indole], the response was half-maximal at 74.5 nM (EC50).

`CC1(C)C(C(=O)c2cn(CC3CCOCC3)c3cc4c(cc23)OCO4)C1(C)C` [5-(oxan-4-ylmethyl)-7-[(2,2,3,3-tetramethylcyclopropyl)carbonyl]-2H,5H-[1,3]dioxolo[4,5-f]indole] gave an EC50 of 29.5 nM.

Turning to `CC1(C)C(C(=O)c2cn(CC3CCOCC3)c3ccc(Br)cc23)C1(C)C` [5-bromo-1-(oxan-4-ylmethyl)-3-[(2,2,3,3-tetramethylcyclopropyl)carbonyl]-1H-indole], the EC50 was 390 nM.

The molecule `CC1(C)C(C(=O)c2cn(CC3CCOCC3)c3ccc(Cl)cc23)C1(C)C` [5-chloro-1-(oxan-4-ylmethyl)-3-[(2,2,3,3-tetramethylcyclopropyl)carbonyl]-1H-indole] had an EC50 of 132 nM.

Consider `CC1(C)C(C(=O)c2cn(CC3CCOCC3)c3ccc(F)cc23)C1(C)C` [5-fluoro-1-(oxan-4-ylmethyl)-3-[(2,2,3,3-tetramethylcyclopropyl)carbonyl]-1H-indole], for which the EC50 amounted to 36.5 nM.

Consider `COc1ccc2c(c1)c(C(=O)C1C(C)(C)C1(C)C)cn2CC1CCOCC1` [5-methoxy-1-(oxan-4-ylmethyl)-3-[(2,2,3,3-tetramethylcyclopropyl)carbonyl]-1H-indole], for which a half-maximal effect (EC50) was put at 101 nM.

Molecule `CC1(C)C(C(=O)c2cn(CC3CCOCC3)c3cc(OCc4ccccc4)ccc23)C1(C)C` [6-(benzyloxy)-1-(oxan-4-ylmethyl)-3-[(2,2,3,3-tetramethylcyclopropyl)carbonyl]-1H-indole] showed an EC50 of 167 nM.

With `CC1(C)C(C(=O)c2cn(CC3CCOCC3)c3cc(Cl)ccc23)C1(C)C` [6-chloro-1-(oxan-4-ylmethyl)-3-[(2,2,3,3-tetramethylcyclopropyl)carbonyl]-1H-indole], the concentration giving a half-maximal response (EC50) worked out at 21 nM.

As to `CC1(C)C(C(=O)c2cn(CC3CCOCC3)c3ccc(CO)cc23)C1(C)C` [[1-(oxan-4-ylmethyl)-3-[(2,2,3,3-tetramethylcyclopropyl)carbonyl]-1H-indol-5-yl]methanol], the EC50 turned out to be 97.5 nM.
